From the supplement of paper PMC10307832

Columns and labels:
Experiment in all cases: relative viability (nuclei count vs DMSO), 5 days (fraction); higher = more cells survive
SW 1573 = tested on: SW 1573
In short: (§1)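 Dosing by pin tool came one day after lung cancer cell lines were seeded in 1536-well plates, using either one drug or a fixed anchor-drug dose plus five library-drug doses (not always all listed) in √10 steps. After 5 days, nuclei were counted on 4× images. Relative viability is treated-well nuclei count divided by vehicle-well nuclei count, and values are medians of duplicate plates.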

ChaGo-K-1 = tested on: ChaGo-K-1
In short: as §1

LCLC-103H = tested on: LCLC-103H
In short: as §1

NCI-H1666 = tested on: NCI-H1666
In short: as §1

SK-LU-1 = tested on: SK-LU-1
In short: as §1

NCI-H322M = tested on: NCI-H322M
In short: as §1

RERF-LC-KJ = tested on: RERF-LC-KJ
In short: as §1

NCI-H1563 = tested on: NCI-H1563
In short: as §1

NCI-H2342 = tested on: NCI-H2342
In short: as §1

NCI-H23 = tested on: NCI-H23
In short: as §1

SW 900 = tested on: SW 900
In short: as §1

EKVX = tested on: EKVX
In short: as §1

NCI-H2405 = tested on: NCI-H2405
In short: as §1

PC-14 = tested on: PC-14
In short: as §1

EPLC-272H = tested on: EPLC-272H
In short: as §1

NCI-H1975 = tested on: NCI-H1975
In short: as §1

LU99A = tested on: LU99A
In short: as §1

EMC-BAC-2 = tested on: EMC-BAC-2
In short: as §1

HCC-827 = tested on: HCC-827
In short: as §1

NCI-H2126 = tested on: NCI-H2126
In short: as §1

LK-2 = tested on: LK-2
In short: as §1

HCC-78 = tested on: HCC-78
In short: as §1

`CC(=O)O[C@@]12CO[C@@H]1C[C@H](O)[C@@]1(C)C(=O)[C@H](O)C3=C(C)[C@@H](OC(=O)[C@H](O)[C@@H](NC(=O)OC(C)(C)C)c4ccccc4)C[C@@](O)([C@@H](OC(=O)c4ccccc4)[C@H]21)C3(C)C` [Docetaxel] + Nc1nc2[nH]cc(CCc3ccc(C(=O)N[C@@H](CCC(=O)O)C(=O)O)cc3)c2c(=O)[nH]1 [Pemetrexed] (partner 0.2 µM) showed a relative viability (SW 1573; first compound 0.0002 µM) of 0.557, a relative viability (SW 1573; first compound 0.000632 µM) of 0.478 and a relative viability (SW 1573; first compound 0.002 µM) of 0.236. It also gave a relative viability (SW 1573; first compound 0.006325 µM) of 0.146, a relative viability (SW 1573; first compound 0.02 µM) of 0.138 and a relative viability (ChaGo-K-1; first compound 0.0002 µM) of 0.269. For the same compound, the relative viability (ChaGo-K-1; first compound 0.000632 µM) was 0.269, the relative viability (ChaGo-K-1; first compound 0.002 µM) was 0.276 and the relative viability (ChaGo-K-1; first compound 0.006325 µM) was 0.268. The relative viability (ChaGo-K-1; first compound 0.02 µM) was 0.181, the relative viability (LCLC-103H; first compound 0.0002 µM) was 0.495 and the relative viability (LCLC-103H; first compound 0.000632 µM) was 0.54. For the same compound, the relative viability (LCLC-103H; first compound 0.002 µM) was 0.515, the relative viability (LCLC-103H; first compound 0.006325 µM) was 0.6 and the relative viability (LCLC-103H; first compound 0.02 µM) was 0.492. The relative viability (NCI-H1666; first compound 0.0002 µM) was 0.946, the relative viability (NCI-H1666; first compound 0.000632 µM) was 0.808 and the relative viability (NCI-H1666; first compound 0.002 µM) was 0.801. For the same compound, the relative viability (NCI-H1666; first compound 0.006325 µM) was 0.858, the relative viability (NCI-H1666; first compound 0.02 µM) was 0.542 and the relative viability (SK-LU-1; first compound 0.0002 µM) was 0.947. For the same compound, the relative viability (SK-LU-1; first compound 0.000632 µM) was 0.725, the relative viability (SK-LU-1; first compound 0.002 µM) was 0.535 and the relative viability (SK-LU-1; first compound 0.006325 µM) was 0.337. It also gave a relative viability (SK-LU-1; first compound 0.02 µM) of 0.258, a relative viability (NCI-H322M; first compound 0.0002 µM) of 0.552 and a relative viability (NCI-H322M; first compound 0.000632 µM) of 0.602. The relative viability (NCI-H322M; first compound 0.002 µM) was 0.689, the relative viability (NCI-H322M; first compound 0.006325 µM) was 0.642 and the relative viability (NCI-H322M; first compound 0.02 µM) was 0.486. The relative viability (RERF-LC-KJ; first compound 0.0002 µM) was 0.375, the relative viability (RERF-LC-KJ; first compound 0.000632 µM) was 0.342 and the relative viability (RERF-LC-KJ; first compound 0.002 µM) was 0.297. For the same compound, the relative viability (RERF-LC-KJ; first compound 0.006325 µM) was 0.173, the relative viability (RERF-LC-KJ; first compound 0.02 µM) was 0.157 and the relative viability (NCI-H1563; first compound 0.0002 µM) was 0.701. For the same compound, the relative viability (NCI-H1563; first compound 0.000632 µM) was 0.843, the relative viability (NCI-H1563; first compound 0.002 µM) was 0.69 and the relative viability (NCI-H1563; first compound 0.006325 µM) was 0.608. It also gave a relative viability (NCI-H1563; first compound 0.02 µM) of 0.374, a relative viability (NCI-H2342; first compound 0.0002 µM) of 0.731 and a relative viability (NCI-H2342; first compound 0.000632 µM) of 0.745. It also gave a relative viability (NCI-H2342; first compound 0.002 µM) of 0.584, a relative viability (NCI-H2342; first compound 0.006325 µM) of 0.495 and a relative viability (NCI-H2342; first compound 0.02 µM) of 0.493. The relative viability (NCI-H23; first compound 0.0002 µM) was 0.712, the relative viability (NCI-H23; first compound 0.000632 µM) was 0.557 and the relative viability (NCI-H23; first compound 0.002 µM) was 0.258. It also gave a relative viability (NCI-H23; first compound 0.006325 µM) of 0.207, a relative viability (NCI-H23; first compound 0.02 µM) of 0.14 and a relative viability (SW 900; first compound 0.0002 µM) of 0.462. The relative viability (SW 900; first compound 0.000632 µM) was 0.332, the relative viability (SW 900; first compound 0.002 µM) was 0.303 and the relative viability (SW 900; first compound 0.006325 µM) was 0.281. It also gave a relative viability (SW 900; first compound 0.02 µM) of 0.24, a relative viability (EKVX; first compound 0.0002 µM) of 0.377 and a relative viability (EKVX; first compound 0.000632 µM) of 0.392. It also gave a relative viability (EKVX; first compound 0.002 µM) of 0.288, a relative viability (EKVX; first compound 0.006325 µM) of 0.209 and a relative viability (EKVX; first compound 0.02 µM) of 0.193. It also gave a relative viability (NCI-H2405; first compound 0.0002 µM) of 1.01, a relative viability (NCI-H2405; first compound 0.000632 µM) of 0.754 and a relative viability (NCI-H2405; first compound 0.002 µM) of 0.671. The relative viability (NCI-H2405; first compound 0.006325 µM) was 0.405, the relative viability (NCI-H2405; first compound 0.02 µM) was 0.389 and the relative viability (PC-14; first compound 0.0002 µM) was 0.13. The relative viability (PC-14; first compound 0.000632 µM) was 0.144, the relative viability (PC-14; first compound 0.002 µM) was 0.129 and the relative viability (PC-14; first compound 0.006325 µM) was 0.0511. It also gave a relative viability (PC-14; first compound 0.02 µM) of 0.0414, a relative viability (EPLC-272H; first compound 0.0002 µM) of 0.298 and a relative viability (EPLC-272H; first compound 0.000632 µM) of 0.187. The relative viability (EPLC-272H; first compound 0.002 µM) was 0.139, the relative viability (EPLC-272H; first compound 0.006325 µM) was 0.0965 and the relative viability (EPLC-272H; first compound 0.02 µM) was 0.111. It also gave a relative viability (NCI-H1975; first compound 0.0002 µM) of 0.286, a relative viability (NCI-H1975; first compound 0.000632 µM) of 0.277 and a relative viability (NCI-H1975; first compound 0.002 µM) of 0.232. It also gave a relative viability (NCI-H1975; first compound 0.006325 µM) of 0.18, a relative viability (NCI-H1975; first compound 0.02 µM) of 0.137 and a relative viability (LU99A; first compound 0.0002 µM) of 0.208. The relative viability (LU99A; first compound 0.000632 µM) was 0.201, the relative viability (LU99A; first compound 0.002 µM) was 0.217 and the relative viability (LU99A; first compound 0.006325 µM) was 0.207. It also gave a relative viability (LU99A; first compound 0.02 µM) of 0.19, a relative viability (EMC-BAC-2; first compound 0.0002 µM) of 0.461 and a relative viability (EMC-BAC-2; first compound 0.000632 µM) of 0.462. For the same compound, the relative viability (EMC-BAC-2; first compound 0.002 µM) was 0.464, the relative viability (EMC-BAC-2; first compound 0.006325 µM) was 0.361 and the relative viability (EMC-BAC-2; first compound 0.02 µM) was 0.358. It also gave a relative viability (HCC-827; first compound 0.0002 µM) of 0.183, a relative viability (HCC-827; first compound 0.000632 µM) of 0.282 and a relative viability (HCC-827; first compound 0.006325 µM) of 0.238. It also gave a relative viability (HCC-827; first compound 0.02 µM) of 0.215, a relative viability (NCI-H2126; first compound 0.0002 µM) of 0.79 and a relative viability (NCI-H2126; first compound 0.000632 µM) of 0.661. It also gave a relative viability (NCI-H2126; first compound 0.002 µM) of 0.456, a relative viability (NCI-H2126; first compound 0.006325 µM) of 0.391 and a relative viability (LK-2; first compound 0.0002 µM) of 0.172. It also gave a relative viability (LK-2; first compound 0.000632 µM) of 0.217, a relative viability (LK-2; first compound 0.002 µM) of 0.163 and a relative viability (LK-2; first compound 0.006325 µM) of 0.119. The relative viability (LK-2; first compound 0.02 µM) was 0.131, the relative viability (HCC-78; first compound 0.0002 µM) was 0.892 and the relative viability (HCC-78; first compound 0.000632 µM) was 0.868. The relative viability (HCC-78; first compound 0.002 µM) was 0.88, the relative viability (HCC-78; first compound 0.006325 µM) was 0.889 and the relative viability (HCC-78; first compound 0.02 µM) was 0.861.
